Test results as given in patent publication US9150577B2, “Heterocyclic compounds containing an indole core” (Boehringer Ingelheim International GmbH, priority 2009, dated 2015).

target: Human RSK2 (Homo sapiens (Human), UniProt P51812); assay: Human RSK2 assay (Kinase Glo Plus, residual ATP); type: biochemical;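 also: recombinant human RSK2 phosphorylating a substrate peptide, 90 min at 28 °C, leftover ATP read by luminescence, RLU scaled between no-kinase background and uninhibited kinase controls, 4-parameter fit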
Sequence (P51812 whole entry): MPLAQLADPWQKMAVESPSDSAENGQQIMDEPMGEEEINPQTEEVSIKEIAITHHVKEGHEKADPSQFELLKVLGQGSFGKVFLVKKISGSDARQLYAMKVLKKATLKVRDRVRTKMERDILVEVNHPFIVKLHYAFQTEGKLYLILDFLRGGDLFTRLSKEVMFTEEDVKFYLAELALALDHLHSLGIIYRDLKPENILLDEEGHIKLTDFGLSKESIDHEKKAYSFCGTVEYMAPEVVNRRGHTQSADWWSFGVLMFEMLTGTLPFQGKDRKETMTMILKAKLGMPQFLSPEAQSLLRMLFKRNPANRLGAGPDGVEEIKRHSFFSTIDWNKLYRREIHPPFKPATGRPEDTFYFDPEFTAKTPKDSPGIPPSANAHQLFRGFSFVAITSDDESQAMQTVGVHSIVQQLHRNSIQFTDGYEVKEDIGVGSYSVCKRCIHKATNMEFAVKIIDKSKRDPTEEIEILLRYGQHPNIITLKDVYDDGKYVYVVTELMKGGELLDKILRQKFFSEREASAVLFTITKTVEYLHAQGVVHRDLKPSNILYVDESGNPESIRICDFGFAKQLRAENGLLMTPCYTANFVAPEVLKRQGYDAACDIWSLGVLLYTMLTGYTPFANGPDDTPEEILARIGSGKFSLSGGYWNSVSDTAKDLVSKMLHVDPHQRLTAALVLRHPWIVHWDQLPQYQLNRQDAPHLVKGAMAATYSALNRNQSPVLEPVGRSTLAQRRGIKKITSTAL

Row | IC50 | Structure (SMILES)
1 | 0.011 µM | CC1CCNC(=O)c2cc3ccc(C(=O)Nc4ccccc4C(N)=O)cc3n21 (stereo not shown) [Example 222, N-(2-carbamoylphenyl)-5-methyl-1-oxo-2,3,4,5-tetrahydro-1H-[1,4]diazepino[1,2-a]indole-8-carboxamide]
2 | 0.068 µM | Cc1cc(NC(=O)c2ccc3cc4n(c3c2)CCCNC4=O)n[nH]1 [Example 219, N-(5-methyl-1H-pyrazol-3-yl)-1-oxo-2,3,4,5-tetrahydro-1H-[1,4]diazepino[1,2-a]indole-8-carboxamide]
3 | 0.0007 µM | C[C@@H]1CNC(=O)c2cc3ccc(C(=O)Nc4nc5ccccc5n4CCCN(C)C)cc3n21 [Example 129, (4R)-N-{1-[3-(dimethylamino)propyl]-1H-benzimidazol-2-yl}-4-methyl-1-oxo-1,2,3,4-tetrahydropyrazino[1,2-a]indole-7-carboxamide]
4 | 0.006 µM | Cn1cc(NC(=O)c2ccc3cc4n(c3c2)C(C)(C)CNC4=O)nc1C(=O)NC(C)(C)C [Example 231, N-[2-(tert-butylcarbamoyl)-1-methyl-1H-imidazol-4-yl]-4,4-dimethyl-1-oxo-1,2,3,4-tetrahydropyrazino[1,2-a]indole-7-carboxamide]
5 | 0.125 µM | CN(C)CCNC(=O)c1ccccc1NC(=O)c1ccc2cc3n(c2c1)CCCNC3=O [Example 230, N-(2-{[2-(dimethylamino)ethyl]carbamoyl}phenyl)-1-oxo-2,3,4,5-tetrahydro-1H-[1,4]diazepino[1,2-a]indole-8-carboxamide]
6 | 0.089 µM | CC(C)c1ccc(NC(=O)c2ccc3cc4n(c3c2)CCCNC4=O)cc1 [Example 146, 1-oxo-N-[4-(propan-2-yl)phenyl]-2,3,4,5-tetrahydro-1H-[1,4]diazepino[1,2-a]indole-8-carboxamide]
7 | 0.24 µM | C[C@H]1CNC(=O)c2cc3ccc(C(=O)Nc4cccnc4)cc3n2[C@H]1C (relative stereo) [Example 150, Cis-4,5-dimethyl-1-oxo-N-(pyridin-3-yl)-2,3,4,5-tetrahydro-1H-[1,4]diazepino[1,2-a]indole-8-carboxamide]
8 | 0.0082 µM | CC1(C)CNC(=O)c2cc3ccc(C(=O)Nc4ccccc4C(N)=O)cc3n21 [Example 221, N-(2-carbamoylphenyl)-4,4-dimethyl-1-oxo-1,2,3,4-tetrahydropyrazino[1,2-a]indole-7-carboxamide]
9 | 0.54 µM | CN(C)CCCn1c(NC(=O)c2ccc3cc4n(c3c2)CC2(CCNCC2)CNC4=O)nc2ccccc21 [Example 236, N-{1-[3-(dimethylamino)propyl]-1H-benzimidazol-2-yl}-1-oxo-2,3-dihydro-1H-spiro[1,4-diazepino[1,2-a]indole-4,4′-piperidine]-8-carboxamide]
10 | 0.096 µM | CC(C)(CO)c1cc(NC(=O)c2ccc3cc4n(c3c2)CCCNC4=O)on1 [Example 208, N-[3-(1-hydroxy-2-methylpropan-2-yl)-1,2-oxazol-5-yl]-1-oxo-2,3,4,5-tetrahydro-1H-[1,4]diazepino[1,2-a]indole-8-carboxamide]
11 | 0.015 µM | C[C@H]1CNC(=O)c2cc3ccc(C(=O)Nc4nc5ccccc5n4CCCN(C)C)cc3n21 [Example 131, (4S)-N-{1-[3-(dimethylamino)propyl]-1H-benzimidazol-2-yl}-4-methyl-1-oxo-1,2,3,4-tetrahydropyrazino[1,2-a]indole-7-carboxamide]
12 | 0.495 µM | Cc1cc(NC(=O)c2ccc3cc4n(c3c2)[C@@H](C)CNC4=O)no1 [Example 132, (4S)-4-methyl-N-(5-methyl-1,2-oxazol-3-yl)-1-oxo-1,2,3,4-tetrahydropyrazino[1,2-a]indole-7-carboxamide]
13 | 0.0006 µM | CCn1c(NC(=O)c2ccc3cc4n(c3c2)C(C)CCNC4=O)nc2ccccc21 (stereo not shown) [Example 166, N-(1-ethyl-1H-benzimidazol-2-yl)-5-methyl-1-oxo-2,3,4,5-tetrahydro-1H-[1,4]diazepino[1,2-a]indole-8-carboxamide]
14 | 0.0655 µM | C[C@H]1NC(=O)c2cc3ccc(C(=O)Nc4cnn(Cc5ccccc5)c4)cc3n2[C@H]1C [Example 142, (3R,4S)-N-(1-benzyl-1H-pyrazol-4-yl)-3,4-dimethyl-1-oxo-1,2,3,4-tetrahydropyrazino[1,2-a]indole-7-carboxamide]
15 | 0.11 µM | CC1(C)CNC(=O)c2cc3ccc(C(=O)Nc4cnn(Cc5ccccc5)c4)cc3n2C1 [Example 122, N-(1-benzyl-1H-pyrazol-4-yl)-4,4-dimethyl-1-oxo-2,3,4,5-tetrahydro-1H-[1,4]diazepino[1,2-a]indole-8-carboxamide]
16 | 0.145 µM | Cc1cc(NC(=O)c2ccc3cc4n(c3c2)CC2(CC2)CNC4=O)no1 [Example 127, N-(5-methyl-1,2-oxazol-3-yl)-1′-oxo-2′,3′-dihydro-1′H-spiro[cyclopropane-1,4′-[1,4]diazepino[1,2-a]indole]-8′-carboxamide]
17 | 0.29 µM | O=C(Nc1ccccc1)c1ccc2cc3n(c2c1)CCCNC3=O [Example 178, 1-oxo-N-phenyl-2,3,4,5-tetrahydro-1H-[1,4]diazepino[1,2-a]indole-8-carboxamide]
18 | 0.03 µM | O=C(Nc1cc(Cc2ccccc2)on1)c1ccc2cc3n(c2c1)CCCNC3=O [Example 212, N-(5-benzyl-1,2-oxazol-3-yl)-1-oxo-2,3,4,5-tetrahydro-1H-[1,4]diazepino[1,2-a]indole-8-carboxamide]
19 | 0.155 µM | O=C(Nc1cc(-c2ccc(F)cc2)on1)c1ccc2cc3n(c2c1)CCCNC3=O [Example 184, N-[5-(4-fluorophenyl)-1,2-oxazol-3-yl]-1-oxo-2,3,4,5-tetrahydro-1H-[1,4]diazepino[1,2-a]indole-8-carboxamide]

Second part, the molecule before the results:

Row | Structure (SMILES) | IC50
20 | Cn1c(-c2ccccc2)cnc1NC(=O)c1ccc2cc3n(c2c1)CCCNC3=O [Example 107, N-(1-methyl-5-phenyl-1H-imidazol-2-yl)-1-oxo-2,3,4,5-tetrahydro-1H-[1,4]diazepino[1,2-a]indole-8-carboxamide] | 0.5 µM
21 | C[C@@H]1NC(=O)c2cc3ccc(C(=O)Nc4cnn(Cc5ccccc5)c4)cc3n2[C@H]1C (relative stereo) [Example 30, N-(1-benzyl-1H-pyrazol-4-yl)-trans-3,4-dimethyl-1-oxo-1,2,3,4-tetrahydropyrazino[1,2-a]indole-7-carboxamide] | 0.01 µM
22 | CC(C)n1cc(NC(=O)c2ccc3cc4n(c3c2)CCCNC4=O)cn1 [Example 25, 1-oxo-N-[1-(propan-2-yl)-1H-pyrazol-4-yl]-2,3,4,5-tetrahydro-1H-[1,4]diazepino[1,2-a]indole-8-carboxamide] | 0.014 µM
23 | CC1CCNC(=O)c2cc3ccc(C(=O)Nc4nc5ccccc5[nH]4)cc3n21 (stereo not shown) [Example 58, N-(1H-benzimidazol-2-yl)-5-methyl-1-oxo-2,3,4,5-tetrahydro-1H-[1,4]diazepino[1,2-a]indole-8-carboxamide] | 0.00077 µM
24 | CCn1c(NC(=O)c2ccc3cc4n(c3c2)[C@@H](C)[C@H](C)NC4=O)nc2ccccc21 (relative stereo) [Example 80, N-(1-ethyl-1H-benzimidazol-2-yl)-trans-3,4-dimethyl-1-oxo-1,2,3,4-tetrahydropyrazino[1,2-a]indole-7-carboxamide] | 0.005 µM
25 | CC(C)(C)c1cnc(NC(=O)c2ccc3cc4n(c3c2)CCCNC4=O)o1 [Example 111, N-(5-tert-butyl-1,3-oxazol-2-yl)-1-oxo-2,3,4,5-tetrahydro-1H-[1,4]diazepino[1,2-a]indole-8-carboxamide] | 1.8 µM
26 | CCn1c(NC(=O)c2ccc3cc4n(c3c2)CCCNC4=O)nc2cc(C)ccc21 [Example 40, N-(1-ethyl-5-methyl-1H-benzimidazol-2-yl)-1-oxo-2,3,4,5-tetrahydro-1H-[1,4]diazepino[1,2-a]indole-8-carboxamide] | 0.0048 µM
27 | C[C@@H]1NC(=O)c2cc3ccc(C(=O)Nc4nc5ccccc5n4CCCN(C)C)cc3n2[C@H]1C (relative stereo) [Example 91, N-{1-[3-(dimethylamino)propyl]-1H-benzimidazol-2-yl}-trans-3,4-dimethyl-1-oxo-1,2,3,4-tetrahydropyrazino[1,2-a]indole-7-carboxamide] | 0.0085 µM
28 | CN(C)CCCn1c(NC(=O)c2ccc3cc4n(c3c2)CC2(CCOCC2)CNC4=O)nc2ccccc21 [Example 95, N-{1-[3-(dimethylamino)propyl]-1H-benzimidazol-2-yl}-1-oxo-2,2′,3,3′,5′,6′-hexahydro-1H-spiro[1,4-diazepino[1,2-a]indole-4,4′-pyran]-8-carboxamide] | 0.016 µM
29 | C[C@H]1NC(=O)c2cc3ccc(C(=O)Nc4nc5ccccc5n4CCCN(C)C)cc3n2[C@H]1C (relative stereo) [Example 90, N-{1-[3-(dimethylamino)propyl]-1H-benzimidazol-2-yl}-cis-3,4-dimethyl-1-oxo-1,2,3,4-tetrahydropyrazino[1,2-a]indole-7-carboxamide] | 0.0021 µM
30 | Cn1c(NC(=O)c2ccc3cc4n(c3c2)CC(C)(C)CNC4=O)nc2ccccc21 [Example 60, 4,4-dimethyl-N-(1-methyl-1H-benzimidazol-2-yl)-1-oxo-2,3,4,5-tetrahydro-1H-[1,4]diazepino[1,2-a]indole-8-carboxamide] | 0.02 µM
31 | CC(C)(CO)n1c(NC(=O)c2ccc3cc4n(c3c2)CCCNC4=O)nc2ccccc21 [Example 66, N-[1-(1-hydroxy-2-methylpropan-2-yl)-1H-benzimidazol-2-yl]-1-oxo-2,3,4,5-tetrahydro-1H-[1,4]diazepino[1,2-a]indole-8-carboxamide] | 0.61 µM
32 | CS(=O)(=O)c1ccc2c(c1)nc(NC(=O)c1ccc3cc4n(c3c1)CCCNC4=O)n2CC(F)(F)F [Example 118, N-[5-(methylsulfonyl)-1-(2,2,2-trifluoroethyl)-1H-benzimidazol-2-yl]-1-oxo-2,3,4,5-tetrahydro-1H-[1,4]diazepino[1,2-a]indole-8-carboxamide] | 0.018 µM
33 | CC1CNC(=O)c2cc3ccc(C(=O)Nc4cnn(C)c4)cc3n21 (stereo not shown) [Example 22, 4-methyl-N-(1-methyl-1H-pyrazol-4-yl)-1-oxo-1,2,3,4-tetrahydropyrazino[1,2-a]indole-7-carboxamide] | 0.0051 µM
34 | CC(C)n1c(NC(=O)c2ccc3cc4n(c3c2)[C@@H](C)[C@@H](C)NC4=O)nc2ccccc21 (relative stereo) [Example 67, cis-3,4-dimethyl-1-oxo-N-[1-(propan-2-yl)-1H-benzimidazol-2-yl]-1,2,3,4-tetrahydropyrazino[1,2-a]indole-7-carboxamide] | 0.0034 µM
